Measured values: US7297535B2, “Use of the human LRP/MVP promotor for a vector that can be induced by therapy” (Max-Delbrück-Centrum Für Molekulare Medizin, priority 2000, dated 2007)

Test system: LRP/MVP promoter
Assay: Inducibility of LRP/MVP promoter by cytostatics (CAT expression)
Assay type: cell-based, human
Conditions: for inducibility of the human LRP/MVP gene promoter by therapy-relevant factors: general statement, no details given

Structure (SMILES)	induction of LRP/MVP-promoter-mediated CAT expression (24 h after cytostatic administration, FIG. 2)	inducibility of the human LRP/MVP gene promoter by therapy-relevant factors
O=c1[nH]cc(F)c(=O)[nH]1 [5-fluoruracil]	induced	inductors
COc1cccc2c1C(=O)c1c(O)c3c(c(O)c1C2=O)C[C@@](O)(C(=O)CO)C[C@@H]3O[C@H]1C[C@H](N)[C@H](O)[C@H](C)O1 [adriamycin]		inductors
N.N.[Cl][Pt][Cl] [cisplatin]		inductors
CC[C@]1(O)C[C@H]2CN(CCc3c([nH]c4ccccc34)[C@@](C(=O)OC)(c3cc4c(cc3OC)N(C=O)[C@H]3[C@@](O)(C(=O)OC)[C@H](OC(C)=O)[C@]5(CC)C=CCN6CC[C@]43[C@@H]65)C2)C1 [vincristin]		inductors
